Laboratory results published in article PMC6053381, “Novel 2-phenyloxypyrimidine derivative induces apoptosis and autophagy via inhibiting PI3K pathway and activating MAPK/ERK signaling in hepatocellular carcinoma cells” (Scientific Reports, 2018).

Key:
BEL7404 = assay: CellTiter-Glo luminescent cell viability assay; assay type: cell-based; settings: 120 h incubation, read-out: Anti-proliferative activity IC50 BEL7404
From the text: (§1) The in vitro antitumor activity of all compounds was screened against six HCC cell lines by CellTiter-Glo luminescent cell viability assay as described earlier. […] After a comprehensive assessment of PDGFR inhibition, cellular activity against HCC cells as well as potential druggability, E5 was chosen to investigate its kinase profiling, antitumor activity and molecular mechanism in the following study. […]
(§2) authenticated by using short tandem repeat (STR) matching analysis. No mycoplasma contamination was detected.
(§3) CellTiter-Glo luminescent cell viability assay
(§4) For experiments hepatocellular carcinoma cells were seeded at 4000 cells per well in 96-well plates. After overnight incubation, solution of compounds in DMSO at various concentrations were added to the cells and further incubated for 120 h. Cell viability was measured with the CellTiter-Glo Luminescent Cell Viability Assay (Promega) according to the manufacturer’s instructions. Luminescence was measured using an EnVision Multilabel Plate Reader (Perkin-Elmer). The cytotoxicity of the compounds was expressed as the percent age of luminescence relative to that of untreated cells . The concentration of compound producing 50% of cell proliferation (IC50) was calculated by nonlinear regression analysis of the response-concentration (log) curve, using the Graph-Pad Prism program package (Graph Pad Software; San Diego, CA). Results are expressed as the means of two […] experiments

SMMC-7721 = assay: CellTiter-Glo luminescent cell viability assay; assay type: cell-based; settings: 120 h incubation, read-out: Anti-proliferative activity IC50 SMMC-7721
From the text: as §1, §2, §3, §4

MHCC97-L = assay: CellTiter-Glo luminescent cell viability assay; assay type: cell-based; settings: 120 h incubation, read-out: Anti-proliferative activity IC50 MHCC97-L
From the text: as §1, §2, §3, §4

Hep3B = assay: CellTiter-Glo luminescent cell viability assay; assay type: cell-based; settings: 120 h incubation, read-out: Anti-proliferative activity IC50 Hep3B
From the text: as §1, §2, §3, §4

QGY-7703 = assay: CellTiter-Glo luminescent cell viability assay; assay type: cell-based; settings: 120 h incubation, read-out: Anti-proliferative activity IC50 QGY-7703
From the text: as §1, §2, §3, §4

SNU368 = assay: CellTiter-Glo luminescent cell viability assay; assay type: cell-based; settings: 120 h incubation, read-out: Anti-proliferative activity IC50 SNU368
From the text: as §1, §2, §3, §4

PDGFRβ = PDGFRβ (Homo sapiens, UniProt P09619); assay: PDGFR kinase assay, Caliper microfluidic mobility shift; assay type: biochemical; settings: compound at 1 µM; averages of two separate experiments
Experimental: (§5) In vitro inhibitory activities of all compounds at 1 μM against PDGFRα and PDGFRβ were evaluated using Caliper microfluidic mobility shift technology. […] At the same concentration, only E5 inhibited greater than 50% of PDGFRβ activity (Fig. 2B).
(§6) PDGFR kinase activity was measured using Caliper microfluidic mobility shift technology. Briefly, 2 μL compound solution (25 μM) in 25% DMSO per well were added into the 384 well microtiter plates. Then, 10 μL per well of enzyme solution (100 mM HEPES, 10 mM MgCl2, Brij35 (30%) 100 μL, 1 mM DTT, 20 ng enzyme) was added. After a brief centrifugation at 1,000 rpm, the kinase reactions were started by addition of 38 μL per well of peptide/ATP-solution (40 μM ATP, 6.5 μM peptide 5′-FAM-KKKKEEIYFFF-NH2, Tris-HCl buffer, pH 7.0) incubated at 30 °C for 60 min and stopped by the addition of 20 μL 35 mM EDTA per well. The electrophoretic separation of the phosphorylated and non-phosphorylated peptides was then carried out on LabChip EZ Reader II (Caliper Life Sciences). All other kinase reactions were carried out as previously reported using the Kinase-Glo Plus or ADP-Glo assay. Kinase inhibition rates were calculated per manufacturer’s instructions.

PDGFRα = PDGFRα (Homo sapiens, UniProt P16234); assay: as above; assay type: biochemical; settings: compound at 1 µM; averages of two separate experiments
Experimental: as §5, §6

Sequence of PDGFRα (P16234 24-1089): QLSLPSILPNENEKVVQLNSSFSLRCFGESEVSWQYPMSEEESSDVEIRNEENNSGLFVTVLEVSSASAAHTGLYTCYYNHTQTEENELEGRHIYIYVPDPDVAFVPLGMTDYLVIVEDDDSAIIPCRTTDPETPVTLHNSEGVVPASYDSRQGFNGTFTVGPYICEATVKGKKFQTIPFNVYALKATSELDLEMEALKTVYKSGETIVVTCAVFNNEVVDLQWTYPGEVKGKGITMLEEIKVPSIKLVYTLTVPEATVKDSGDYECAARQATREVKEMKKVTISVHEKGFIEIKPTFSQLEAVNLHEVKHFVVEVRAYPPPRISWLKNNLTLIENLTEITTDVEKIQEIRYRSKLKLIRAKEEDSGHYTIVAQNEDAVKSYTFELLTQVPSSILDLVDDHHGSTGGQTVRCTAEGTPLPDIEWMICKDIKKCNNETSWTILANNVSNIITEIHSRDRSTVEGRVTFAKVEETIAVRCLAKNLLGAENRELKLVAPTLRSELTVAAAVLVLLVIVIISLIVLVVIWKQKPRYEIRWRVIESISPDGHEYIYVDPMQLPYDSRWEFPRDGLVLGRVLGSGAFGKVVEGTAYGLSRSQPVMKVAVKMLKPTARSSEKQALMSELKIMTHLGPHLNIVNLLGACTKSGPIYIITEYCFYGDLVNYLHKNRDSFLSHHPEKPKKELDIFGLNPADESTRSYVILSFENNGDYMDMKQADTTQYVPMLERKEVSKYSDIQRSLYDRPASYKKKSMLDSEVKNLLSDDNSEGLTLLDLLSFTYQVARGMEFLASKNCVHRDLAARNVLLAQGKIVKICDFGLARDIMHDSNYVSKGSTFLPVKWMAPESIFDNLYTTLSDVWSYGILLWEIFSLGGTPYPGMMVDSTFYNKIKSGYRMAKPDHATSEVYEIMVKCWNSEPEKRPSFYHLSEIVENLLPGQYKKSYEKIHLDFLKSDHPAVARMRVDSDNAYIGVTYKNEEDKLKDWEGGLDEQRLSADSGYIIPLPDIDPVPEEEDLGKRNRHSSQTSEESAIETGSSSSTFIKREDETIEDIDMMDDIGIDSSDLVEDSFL
Sequence of PDGFRβ (P09619 33-1106): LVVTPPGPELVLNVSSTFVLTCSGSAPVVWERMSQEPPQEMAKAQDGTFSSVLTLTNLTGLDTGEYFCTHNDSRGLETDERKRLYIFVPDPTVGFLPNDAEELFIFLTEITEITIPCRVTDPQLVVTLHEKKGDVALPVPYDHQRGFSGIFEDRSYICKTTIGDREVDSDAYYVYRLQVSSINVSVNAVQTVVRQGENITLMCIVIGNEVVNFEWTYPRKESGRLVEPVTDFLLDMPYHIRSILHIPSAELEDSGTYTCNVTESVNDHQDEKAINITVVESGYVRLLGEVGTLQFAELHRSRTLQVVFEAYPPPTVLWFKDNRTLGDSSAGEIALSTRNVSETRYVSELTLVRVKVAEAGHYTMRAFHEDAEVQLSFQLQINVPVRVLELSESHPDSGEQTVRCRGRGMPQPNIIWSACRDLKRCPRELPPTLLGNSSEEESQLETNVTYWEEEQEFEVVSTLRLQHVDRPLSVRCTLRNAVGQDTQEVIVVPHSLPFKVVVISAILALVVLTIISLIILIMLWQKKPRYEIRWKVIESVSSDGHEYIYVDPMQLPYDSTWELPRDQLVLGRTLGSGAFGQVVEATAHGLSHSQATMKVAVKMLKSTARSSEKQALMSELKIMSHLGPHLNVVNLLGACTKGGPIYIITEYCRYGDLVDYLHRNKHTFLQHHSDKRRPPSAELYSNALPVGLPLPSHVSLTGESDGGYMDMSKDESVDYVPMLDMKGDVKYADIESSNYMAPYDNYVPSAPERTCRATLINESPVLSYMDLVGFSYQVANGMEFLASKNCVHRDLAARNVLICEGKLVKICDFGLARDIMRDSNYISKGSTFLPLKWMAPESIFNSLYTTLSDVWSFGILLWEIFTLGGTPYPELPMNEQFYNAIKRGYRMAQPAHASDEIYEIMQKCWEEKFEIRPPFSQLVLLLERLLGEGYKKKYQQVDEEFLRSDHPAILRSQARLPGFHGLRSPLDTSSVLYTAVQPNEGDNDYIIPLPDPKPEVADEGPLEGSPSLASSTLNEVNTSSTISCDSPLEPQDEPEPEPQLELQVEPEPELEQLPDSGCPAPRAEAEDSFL

Compound	IC50 (BEL7404) [µM]	IC50 (SMMC-7721) [µM]	IC50 (MHCC97-L) [µM]	IC50 (Hep3B) [µM]	IC50 (QGY-7703) [µM]	IC50 (SNU368) [µM]	Inhibition effect (%) PDGFRβ (PDGFRβ) [%]	Inhibition effect (%) PDGFRα (PDGFRα) [%]
Cc1ccc(NC(=O)Cc2ccccc2)cc1Oc1nccc(-c2ccco2)n1 [D2]	32.8	21.6	26.4	28.3	42.2	43.8	46.75	36.82
Cc1cccc(C(=O)Nc2ccc(C)c(Oc3nccc(-c4ccccc4)n3)c2)c1 [B4]	9.5	6.2	7	6.4	10.2	12.9	24.42	35.04
Cc1ccc(NC(=O)c2ccco2)cc1Oc1nccc(-c2cccc3ccccc23)n1 [C3]	39.7	27.2	91	33.5	70.7	37.9	11.61	46.46
CC(=O)Nc1ccc(C)c(Oc2nccc(-c3cccc4ccccc34)n2)c1 [C1]	36.2	21	109	32	91.6	43	1.32	33.27
Cc1ccc(NC(=O)c2ccc(Cl)cc2)cc1Oc1nccc(-c2ccco2)n1 [D6]	10.9	8.2	24.6	7.3	25.8	12.7	37.47	33.02
Cc1ccc(NC(=O)c2ccco2)cc1Oc1nccc(-c2cc3ccccc3o2)n1 [E3]	1.2	0.7	9.6	125	0.7	1.3	3.83	-2.00
Cc1ccc(NC(=O)c2ccc(Cl)cc2)cc1Oc1nccc(-c2cccc3ccccc23)n1 [C6]	6.7	14.3	> 200	19.7	19.2	17.2	-0.94	24.14
Cc1ccc(C(=O)Nc2ccc(C)c(Oc3nccc(-c4cccnc4)n3)c2)cc1 [A3]	32.8	25.1	22.3	21.2	47	51.4	45.50	45.45
COc1ccc(C(=O)Nc2ccc(C)c(Oc3nccc(-c4ccco4)n3)c2)cc1 [D3]	17.6	7.9	8.5	9.7	15.7	22.2	37.72	22.61
Cc1cccc(C(=O)Nc2ccc(C)c(Oc3nccc(-c4cccnc4)n3)c2)c1 [A4]	12.2	17.5	24.5	17.5	39.8	54	43.74	
Cc1ccc(NC(=O)c2ccc([N+](=O)[O-])cc2)cc1Oc1nccc(-c2cccnc2)n1 [A8]	20.1	10.1	34.6	14.3	24.6	25.7	43.24	
Cc1ccc(NC(=O)Cc2ccccc2)cc1Oc1nccc(-c2cccnc2)n1 [A2]	39.3	84.3	> 200	39.5	59.8	112	40.73	
